Experimental data: PubChem BioAssay (NCI)
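Assay format: 96-well plates, 48-hour exposure. At the TGI there is no net growth.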

Experiments:
Experiment in all cases: NCI tumour cell line growth inhibition, 48 h
LOX IMVI melanoma = system: LOX IMVI melanoma
PC-3 prostate = system: PC-3 prostate
ACHN renal = system: ACHN renal
T-47D breast = system: T-47D breast
NCI/ADR-RES ovarian = system: NCI/ADR-RES ovarian
HCT-116 colon = system: HCT-116 colon
786-0 renal = system: 786-0 renal
HCT-15 colon = system: HCT-15 colon
SK-MEL-28 melanoma = system: SK-MEL-28 melanoma
KM12 colon = system: KM12 colon

| Structure (SMILES) | TGI (LOX IMVI melanoma) | TGI (PC-3 prostate) | TGI (ACHN renal) | TGI (T-47D breast) | TGI (NCI/ADR-RES ovarian) | TGI (HCT-116 colon) | TGI (786-0 renal) | TGI (HCT-15 colon) | TGI (SK-MEL-28 melanoma) | TGI (KM12 colon) |
| --- | --- | --- | --- | --- | --- | --- | --- | --- | --- | --- |
| FC(F)(F)c1ccc2c(c1)nc1n2C(c2c(Cl)cccc2Cl)SC1 (stereo not given) | > 100 µM | 37.9 µM | 40.3 µM | 47.4 µM | 58.9 µM | 29.5 µM | 33.4 µM | 50.9 µM | 43.3 µM | 27.2 µM |
| COc1ccc(/C=C2\C[C@H]3[C@@H]4CCC5=C/C(=N/O)CC[C@]5(C)[C@H]4CC[C@]3(C)\C2=N\O)cc1 | > 100 µM | > 100 µM | 98.3 µM | > 100 µM | > 100 µM | > 100 µM | > 100 µM | > 100 µM | > 100 µM | > 100 µM |
| N=c1oc2ccccc2cc1-c1nc2ccccc2[nH]1 | > 100 µM | > 100 µM | 45.4 µM | > 100 µM | 64.2 µM | > 100 µM | 28.8 µM | > 100 µM | > 100 µM | > 100 µM |
| O=[N+]([O-])C(/C(Cl)=C(\Cl)Br)=C(/Cl)SCc1ccccc1 | 3.95 µM | 14.3 µM | 8.64 µM | 10.9 µM | 8.62 µM | 7.11 µM | 4.06 µM | 8.53 µM | 5.98 µM | 30 µM |
| CCC(=O)N/S(=N/S(=O)(=O)c1ccccc1)C(Cl)(Cl)Cl (stereo not given) | > 100 µM | > 100 µM | > 100 µM | > 100 µM | > 100 µM | > 100 µM | > 100 µM | > 100 µM | > 100 µM | > 100 µM |
| COc1cc(C(=O)Oc2c(C(C)=O)sc3c2c(=O)n(-c2ccccc2)c(=S)n3-c2ccccc2)cc(OC)c1OC | 40.1 µM | 48.8 µM | 66 µM | 99.6 µM | 43.5 µM | 36.2 µM | 55.2 µM | 44.1 µM | 49.5 µM | 50.8 µM |
